{
  "source": "patent US8598344B2",
  "about": "“CDKI pathway inhibitors and uses thereof” (Senex Biotechnology, priority 2009, dated 2013)",
  "test_in_all_cases": "KinomeScan competition binding assay",
  "details_in_all_cases": "10 μM compound",
  "key": {"LTK": {"target": "T1, LTK (Homo sapiens, UniProt P29376)", "T1 construct": "purchased KinomeScan, a division of Ambit Biosciences", "T1 sequence (P29376 17-864)": "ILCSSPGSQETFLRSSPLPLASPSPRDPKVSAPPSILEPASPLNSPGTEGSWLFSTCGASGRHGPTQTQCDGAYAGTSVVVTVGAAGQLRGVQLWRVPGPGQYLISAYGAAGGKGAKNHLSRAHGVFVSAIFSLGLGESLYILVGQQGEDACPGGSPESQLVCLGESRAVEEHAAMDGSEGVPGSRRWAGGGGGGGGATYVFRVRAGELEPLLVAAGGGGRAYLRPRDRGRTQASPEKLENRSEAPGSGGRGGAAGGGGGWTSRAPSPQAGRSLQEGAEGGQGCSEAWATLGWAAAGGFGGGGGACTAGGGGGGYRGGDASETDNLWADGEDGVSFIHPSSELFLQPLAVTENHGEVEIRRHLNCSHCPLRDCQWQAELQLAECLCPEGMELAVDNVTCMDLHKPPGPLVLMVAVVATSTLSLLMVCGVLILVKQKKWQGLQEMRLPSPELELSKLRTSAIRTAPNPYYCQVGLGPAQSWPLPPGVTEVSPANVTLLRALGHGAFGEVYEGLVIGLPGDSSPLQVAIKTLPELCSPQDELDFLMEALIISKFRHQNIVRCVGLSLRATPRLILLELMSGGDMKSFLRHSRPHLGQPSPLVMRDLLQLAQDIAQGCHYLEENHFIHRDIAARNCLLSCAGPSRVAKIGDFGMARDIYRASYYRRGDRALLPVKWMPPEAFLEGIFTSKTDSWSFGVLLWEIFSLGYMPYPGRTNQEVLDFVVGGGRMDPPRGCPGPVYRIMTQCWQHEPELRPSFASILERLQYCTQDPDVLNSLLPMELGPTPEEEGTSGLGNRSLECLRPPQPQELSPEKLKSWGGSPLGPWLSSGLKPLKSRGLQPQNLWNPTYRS", "procedure": "(§1) The KINOMEscan assay has been described in detail in Fabian et al., Nat. Biotechnol. 23: 329 (2005) and Karaman et al., Nat. Biotechnol. 26: 127 (2008).\n(§2) The KinomeScan assay is based on a competition binding assay that quantitatively measures the ability of a compound to compete with an immobilized, ATP site directed ligand. The assay is performed by combining three components: DNA-tagged kinase; immobilized ligand; and a test compound. The ability of the test compound to compete with the immobilized ligand is measured via quantitative PCR of the DNA tag."}, "ROS1": {"target": "T2, ROS1 (Homo sapiens, UniProt P08922)", "T2 construct": "purchased KinomeScan, a division of Ambit Biosciences", "T2 sequence (P08922 28-2347)": "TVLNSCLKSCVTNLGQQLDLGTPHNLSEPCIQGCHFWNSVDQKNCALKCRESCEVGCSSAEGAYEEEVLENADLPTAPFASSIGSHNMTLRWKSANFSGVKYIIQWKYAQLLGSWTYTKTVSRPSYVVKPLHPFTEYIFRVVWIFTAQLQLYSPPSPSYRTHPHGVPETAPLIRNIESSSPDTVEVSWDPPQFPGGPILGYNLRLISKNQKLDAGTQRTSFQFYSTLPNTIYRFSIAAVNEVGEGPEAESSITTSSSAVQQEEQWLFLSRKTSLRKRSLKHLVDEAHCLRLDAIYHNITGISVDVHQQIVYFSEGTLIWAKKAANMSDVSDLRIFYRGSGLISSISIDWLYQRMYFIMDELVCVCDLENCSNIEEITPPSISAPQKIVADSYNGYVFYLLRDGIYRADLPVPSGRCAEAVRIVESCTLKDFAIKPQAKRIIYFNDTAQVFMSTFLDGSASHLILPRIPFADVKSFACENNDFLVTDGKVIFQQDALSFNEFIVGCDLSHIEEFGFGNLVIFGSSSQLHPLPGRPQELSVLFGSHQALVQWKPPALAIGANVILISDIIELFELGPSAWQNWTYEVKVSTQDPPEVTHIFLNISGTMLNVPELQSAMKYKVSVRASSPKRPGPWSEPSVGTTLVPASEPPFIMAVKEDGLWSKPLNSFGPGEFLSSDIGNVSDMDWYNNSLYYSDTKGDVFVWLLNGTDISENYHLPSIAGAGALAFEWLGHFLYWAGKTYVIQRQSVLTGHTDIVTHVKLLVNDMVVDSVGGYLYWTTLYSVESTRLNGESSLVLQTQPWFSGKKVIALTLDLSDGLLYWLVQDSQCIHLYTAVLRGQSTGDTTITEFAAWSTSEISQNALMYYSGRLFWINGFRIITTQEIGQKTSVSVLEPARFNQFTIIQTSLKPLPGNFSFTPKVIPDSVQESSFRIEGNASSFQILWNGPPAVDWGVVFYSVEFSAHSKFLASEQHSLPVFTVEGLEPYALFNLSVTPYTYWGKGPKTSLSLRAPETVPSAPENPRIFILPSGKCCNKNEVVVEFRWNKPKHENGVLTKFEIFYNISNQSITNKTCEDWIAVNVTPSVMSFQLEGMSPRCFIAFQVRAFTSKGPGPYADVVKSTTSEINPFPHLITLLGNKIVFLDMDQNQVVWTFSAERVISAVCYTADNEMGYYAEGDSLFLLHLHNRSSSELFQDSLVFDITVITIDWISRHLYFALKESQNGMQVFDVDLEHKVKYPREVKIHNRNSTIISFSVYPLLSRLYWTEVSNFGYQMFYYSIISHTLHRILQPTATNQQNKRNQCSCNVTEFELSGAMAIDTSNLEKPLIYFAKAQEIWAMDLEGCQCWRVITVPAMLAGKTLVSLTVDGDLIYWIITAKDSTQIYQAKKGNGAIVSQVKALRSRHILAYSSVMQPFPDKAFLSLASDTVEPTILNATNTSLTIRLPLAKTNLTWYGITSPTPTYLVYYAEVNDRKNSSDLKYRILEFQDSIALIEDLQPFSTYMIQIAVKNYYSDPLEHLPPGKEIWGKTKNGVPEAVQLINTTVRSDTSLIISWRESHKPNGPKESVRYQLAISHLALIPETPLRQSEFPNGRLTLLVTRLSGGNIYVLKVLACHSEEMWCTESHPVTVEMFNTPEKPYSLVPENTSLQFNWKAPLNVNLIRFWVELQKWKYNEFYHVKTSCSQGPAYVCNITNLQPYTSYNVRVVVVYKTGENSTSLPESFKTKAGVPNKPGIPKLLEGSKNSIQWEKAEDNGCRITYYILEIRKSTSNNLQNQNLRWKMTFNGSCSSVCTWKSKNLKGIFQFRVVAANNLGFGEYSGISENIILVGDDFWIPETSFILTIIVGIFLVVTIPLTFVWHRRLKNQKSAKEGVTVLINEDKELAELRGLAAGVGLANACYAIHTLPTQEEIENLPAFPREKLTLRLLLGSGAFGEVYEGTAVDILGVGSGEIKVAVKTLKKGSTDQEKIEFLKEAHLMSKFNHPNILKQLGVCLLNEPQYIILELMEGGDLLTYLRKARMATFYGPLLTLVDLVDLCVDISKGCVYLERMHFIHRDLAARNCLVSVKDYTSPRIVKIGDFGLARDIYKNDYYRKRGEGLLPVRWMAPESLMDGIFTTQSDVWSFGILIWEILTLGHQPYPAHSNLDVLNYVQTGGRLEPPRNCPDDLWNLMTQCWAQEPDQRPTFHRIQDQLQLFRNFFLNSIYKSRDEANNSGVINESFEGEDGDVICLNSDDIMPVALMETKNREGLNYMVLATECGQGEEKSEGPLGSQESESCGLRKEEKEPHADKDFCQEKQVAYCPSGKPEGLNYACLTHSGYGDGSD", "procedure": "as §1, §2"}, "ALK": {"target": "T3, ALK (Homo sapiens, UniProt Q9UM73)", "T3 construct": "purchased KinomeScan, a division of Ambit Biosciences", "T3 sequence (Q9UM73 19-1620)": "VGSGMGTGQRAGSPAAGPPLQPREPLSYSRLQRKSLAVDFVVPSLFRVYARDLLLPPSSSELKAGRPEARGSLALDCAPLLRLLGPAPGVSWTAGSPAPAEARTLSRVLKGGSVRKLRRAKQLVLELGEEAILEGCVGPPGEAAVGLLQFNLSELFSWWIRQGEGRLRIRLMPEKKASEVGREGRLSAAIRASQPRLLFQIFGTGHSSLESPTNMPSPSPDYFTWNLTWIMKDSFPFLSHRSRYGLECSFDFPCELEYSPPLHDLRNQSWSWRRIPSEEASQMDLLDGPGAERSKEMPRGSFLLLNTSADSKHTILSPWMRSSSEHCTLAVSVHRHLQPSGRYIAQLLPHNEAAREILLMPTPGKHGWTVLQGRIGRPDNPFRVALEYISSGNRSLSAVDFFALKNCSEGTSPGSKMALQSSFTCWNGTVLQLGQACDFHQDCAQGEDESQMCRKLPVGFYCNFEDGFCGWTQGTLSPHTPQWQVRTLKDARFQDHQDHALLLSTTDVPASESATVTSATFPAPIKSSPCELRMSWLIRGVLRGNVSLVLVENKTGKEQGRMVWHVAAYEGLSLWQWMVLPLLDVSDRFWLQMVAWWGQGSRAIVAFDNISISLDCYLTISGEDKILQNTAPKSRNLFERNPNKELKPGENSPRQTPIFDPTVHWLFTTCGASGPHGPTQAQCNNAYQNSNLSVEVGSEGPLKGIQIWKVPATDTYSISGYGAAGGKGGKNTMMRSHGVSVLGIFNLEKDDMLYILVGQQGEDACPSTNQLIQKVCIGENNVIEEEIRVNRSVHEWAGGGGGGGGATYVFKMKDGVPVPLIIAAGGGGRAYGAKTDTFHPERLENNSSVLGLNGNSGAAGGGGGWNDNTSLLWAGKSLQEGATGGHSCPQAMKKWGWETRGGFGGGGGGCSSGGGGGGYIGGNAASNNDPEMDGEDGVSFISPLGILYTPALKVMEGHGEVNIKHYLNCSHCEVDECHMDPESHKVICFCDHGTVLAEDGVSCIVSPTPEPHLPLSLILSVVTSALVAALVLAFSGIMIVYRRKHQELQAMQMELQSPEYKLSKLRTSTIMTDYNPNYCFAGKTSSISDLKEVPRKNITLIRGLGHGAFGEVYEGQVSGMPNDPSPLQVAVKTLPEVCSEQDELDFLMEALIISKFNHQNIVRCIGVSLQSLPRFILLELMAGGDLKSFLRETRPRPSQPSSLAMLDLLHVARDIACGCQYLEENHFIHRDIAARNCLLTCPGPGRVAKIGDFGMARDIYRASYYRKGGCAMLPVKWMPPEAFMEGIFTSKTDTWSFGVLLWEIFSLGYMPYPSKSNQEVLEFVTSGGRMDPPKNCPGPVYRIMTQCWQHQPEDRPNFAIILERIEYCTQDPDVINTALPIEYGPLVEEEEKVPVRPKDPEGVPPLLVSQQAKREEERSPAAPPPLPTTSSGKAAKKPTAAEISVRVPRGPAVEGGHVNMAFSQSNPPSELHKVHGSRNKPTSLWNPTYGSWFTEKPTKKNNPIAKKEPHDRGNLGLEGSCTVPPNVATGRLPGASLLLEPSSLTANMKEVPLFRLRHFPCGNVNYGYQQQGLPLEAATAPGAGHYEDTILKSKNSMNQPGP", "procedure": "as §1, §2"}},
  "data": [
    {"smiles": "N#Cc1ccc2ncnc(NCCc3ccccc3)c2c1", "note": "[compound 1]", "values": [
      {"measurement": "POC binding, LTK", "setting": "LTK", "value": 100, "unit": "POC"},
      {"measurement": "POC binding, ROS1", "setting": "ROS1", "value": 63, "unit": "POC"},
      {"measurement": "POC binding, ALK", "setting": "ALK", "value": 78, "unit": "POC"}
    ]}
  ]
}
